Measurements taken from ChEMBL document CHEMBL5352426, “Synthesis and anti-tumor activity of nitrogen-containing derivatives of the natural product diphyllin” (Eur J Med Chem, 2022).
Values after ≈ are worked out from the molar mass of the structure shown. Active and inactive are the calls of the source. The rule behind the calls is not given here.

What was measured:
CFPAC-1 [1] = experiment: Inhibition of autophagy at later stage in human CFPAC-1 cells assessed as increase in LC3-II/LC3-I ratio at 1 uM incubated for 24 hrs in presence of chloroquine by Western blot analysis; type: functional, cell-based
Panc02 [2] = experiment: Antiproliferative activity against mouse Panc02 cells assessed as inhibition of cell proliferation incubated for 72 hrs by SRB assay; type: functional, cell-based; settings: Panc02, 72 h
[3] = Metabolic stability in human liver microsome assessed as half life; type: ADME; settings: liver microsomes
CFPAC-1 [4] = experiment: Induction of cell cycle arrest in human CFPAC-1 cells assessed as accumulation at S phase at 100 nM incubated for 24 hrs by flow cytometry (reference value: 24.5 %); type: functional
CFPAC-1 [5] = experiment: Induction of apoptosis in human CFPAC-1 cells assessed as viable cells at 1 uM incubated for 24 hrs by annexin V-FITC/PI staining based flow cytometry (reference value: 93.5 %); type: functional; settings: read-out: Activity
CFPAC-1 [6] = experiment: Induction of cell cycle arrest in human CFPAC-1 cells assessed as accumulation at S phase at 10 nM incubated for 24 hrs by flow cytometry (reference value: 24.5 %); type: functional
PaTu 8988t [7] = experiment: Antiproliferative activity against human PaTu 8988t cells assessed as inhibition of cell proliferation at 1 uM incubated for 72 hrs by SRB assay relative to control; type: functional
[8] = Toxicity in C57BL/6 mouse xenografted with […] cells assessed as drug tolerance at 10 mg/kg, ip administered every two days for 20 days; type: organism-based; settings: in vivo, 480 h, time 20 day
MIA PaCa-2 [9] = experiment: Antiproliferative activity against human MIA PaCa-2 cells assessed as inhibition of cell proliferation at 1 uM incubated for 72 hrs by SRB assay relative to control; type: functional
CFPAC-1 [10] = experiment: Antiproliferative activity against human CFPAC-1 cells assessed as inhibition of cell proliferation at 1 uM incubated for 72 hrs by SRB assay relative to control; type: functional
MIA PaCa-2 [11] = experiment: Antiproliferative activity against human MIA PaCa-2 cells assessed as inhibition of cell proliferation incubated for 72 hrs by SRB assay; type: functional, cell-based; settings: MIA PaCa-2, 72 h
CFPAC-1 [12] = experiment: Induction of cell cycle arrest in human CFPAC-1 cells assessed as accumulation at S phase at 1000 nM incubated for 24 hrs by flow cytometry (reference value: 24.5 %); type: functional
[13] = Aqueous solubility of the compound at 1 to 2 mg measured after 24 hrs by HPLC-MS analysis; type: physicochemical; settings: aqueous (not further specified), dose 1-2 mg
CFPAC-1 [14] = experiment: Induction of cell cycle arrest in human CFPAC-1 cells assessed as accumulation at G1 phase at 1000 nM incubated for 24 hrs by flow cytometry (reference value: 58.6 %); type: functional
Panc02 [15] = experiment: Antitumor activity against […] Panc02 cells xenografted in C57BL/6 mouse assessed as tumor growth inhibition at 10 mg/kg, ip administered every two days for 20 days by electronic caliper method relative to control; type: functional; settings: Panc02, 480 h, time 20 day, read-out: TGI
[16] = Metabolic stability in human liver microsome assessed as intrinsic clearance; type: ADME; settings: liver microsomes, read-out: CLH
[17] = Metabolic stability in mouse liver microsome assessed as half life; type: ADME; settings: liver microsomes
CFPAC-1 [18] = experiment: Antiproliferative activity against human CFPAC-1 cells assessed as inhibition of cell proliferation incubated for 72 hrs by SRB assay; type: functional, cell-based; settings: CFPAC-1, 72 h
Panc02 [19] = experiment: Antiproliferative activity against mouse Panc02 cells assessed as inhibition of cell proliferation at 1 uM incubated for 72 hrs by SRB assay relative to control; type: functional
CFPAC-1 [20] = experiment: Induction of apoptosis in human CFPAC-1 cells assessed as viable cells at 10 uM incubated for 24 hrs by annexin V-FITC/PI staining based flow cytometry (reference value: 93.5 %); type: functional; settings: read-out: Activity
[21] = Antiproliferative activity against human L02 cells assessed as inhibition of cell proliferation at 1 uM incubated for 72 hrs by SRB assay relative to control; type: toxicity, cell-based
PaTu 8988t [22] = experiment: Antiproliferative activity against human PaTu 8988t cells assessed as inhibition of cell proliferation incubated for 72 hrs by SRB assay; type: functional, cell-based
CFPAC-1 [23] = experiment: Induction of cell cycle arrest in human CFPAC-1 cells assessed as accumulation at G2 phase at 1000 nM incubated for 24 hrs by flow cytometry (reference value: 14.5 %); type: functional
CFPAC-1 [24] = experiment: Induction of cell cycle arrest in human CFPAC-1 cells assessed as accumulation at G1 phase at 10 nM incubated for 24 hrs by flow cytometry (reference value: 58.6 %); type: functional
CFPAC-1 [25] = experiment: Induction of apoptosis in human CFPAC-1 cells assessed as early apoptotic cells at 1 uM incubated for 24 hrs by annexin V-FITC/PI staining based flow cytometry (reference value: 3.04 %); type: functional
CFPAC-1 [26] = experiment: Induction of cell cycle arrest in human CFPAC-1 cells assessed as accumulation at G1 phase at 100 nM incubated for 24 hrs by flow cytometry (reference value: 58.6 %); type: functional
CFPAC-1 [27] = experiment: Induction of apoptosis in human CFPAC-1 cells assessed as necrotic cells at 10 uM incubated for 24 hrs by annexin V-FITC/PI staining based flow cytometry (reference value: 0.37 %); type: functional
CFPAC-1 [28] = experiment: Induction of apoptosis in human CFPAC-1 cells assessed as late apoptotic cells at 1 uM incubated for 24 hrs by annexin V-FITC/PI staining based flow cytometry (reference value: 3.14 %); type: functional
CFPAC-1 [29] = experiment: Induction of cell cycle arrest in human CFPAC-1 cells assessed as accumulation at G2 phase at 10 nM incubated for 24 hrs by flow cytometry (reference value: 14.5 %); type: functional
[30] = Metabolic stability in mouse liver microsome assessed as intrinsic clearance; type: ADME; settings: liver microsomes, read-out: CLH
CFPAC-1 [31] = experiment: Induction of apoptosis in human CFPAC-1 cells assessed as early apoptotic cells at 10 uM incubated for 24 hrs by annexin V-FITC/PI staining based flow cytometry (reference value: 3.04 %); type: functional
[32] = Antiproliferative activity against human L02 cells assessed as inhibition of cell proliferation incubated for 72 hrs by SRB assay; type: toxicity, cell-based
[33] = Toxicity in C57BL/6 mouse xenografted with […] cells assessed as body weight loss at 10 mg/kg, ip administered every two days for 20 days; type: organism-based; settings: in vivo, 480 h, time 20 day
CFPAC-1 [34] = experiment: Induction of apoptosis in human CFPAC-1 cells assessed as necrotic cells at 1 uM incubated for 24 hrs by annexin V-FITC/PI staining based flow cytometry (reference value: 0.37 %); type: functional
CFPAC-1 [35] = experiment: Induction of cell cycle arrest in human CFPAC-1 cells assessed as accumulation at G2 phase at 100 nM incubated for 24 hrs by flow cytometry (reference value: 14.5 %); type: functional
[36] = Metabolic stability in mouse liver microsome assessed as hepatic clearance; type: ADME; settings: microsomes
[37] = Metabolic stability in human liver microsome assessed as hepatic clearance; type: ADME; settings: microsomes
CFPAC-1 [38] = experiment: Induction of apoptosis in human CFPAC-1 cells assessed as late apoptotic cells at 10 uM incubated for 24 hrs by annexin V-FITC/PI staining based flow cytometry (reference value: 3.14 %); type: functional
CFPAC-1 [39] = experiment: Effect on beclin-1 level in human CFPAC-1 cells at 10 to 1000 nM incubated for 24 hrs by Western blot analysis; type: functional, cell-based; settings: dose 10-1000 nM

In the case of COc1cc2c(O)c3c(c(-c4ccc5c(c4)OCO5)c2cc1OC)C(=O)OC3 [DIPHYLLIN], the inhibition (CFPAC-1 [1]) is reported as “Active”, the IC50 (Panc02 [2]) is reported as 0.061 µM and the half-life [3] is reported as 43.8 min. The Activity (CFPAC-1 [4]) was 20.4%, the viability at 1 µM (CFPAC-1 [5]) was 89.9% and the Activity (CFPAC-1 [6]) was 28.7%. The inhibition at 1 µM (PaTu 8988t [7]) was 77.5%, the Activity [8] was “Non-Toxic” and the inhibition at 1 µM (MIA PaCa-2 [9]) was 70.1%. For the same molecule, the inhibition at 1 µM (CFPAC-1 [10]) was 75.4%, the IC50 (MIA PaCa-2 [11]) was 0.271 µM and the Activity (CFPAC-1 [12]) was 8.14%. For the same molecule, the solubility at 24 h [13] was 0.021 µg/mL (≈ 0.0552 µM), the Activity (CFPAC-1 [14]) was 81.9% and the inhibition in vivo at 10 mg/kg (Panc02 [15]) was 22.6%. It also gave a microsomal CLint [16] of 31.6 µL/min/mg, a half-life [17] of under 5 min and an IC50 (CFPAC-1 [18]) of 0.208 µM. For the same molecule, the inhibition at 1 µM (Panc02 [19]) was 83.3%, the viability at 10 µM (CFPAC-1 [20]) was 87.8% and the inhibition at 72 h, 1 µM [21] was 17.7%. The IC50 (PaTu 8988t [22]) was 0.102 µM, the Activity (CFPAC-1 [23]) was 7.81% and the Activity (CFPAC-1 [24]) was 58.9%. It also gave an Activity (CFPAC-1 [25]) of 1.99%, an Activity (CFPAC-1 [26]) of 66.7% and an Activity (CFPAC-1 [27]) of 0.58%. It also gave an Activity (CFPAC-1 [28]) of 7.23%, an Activity (CFPAC-1 [29]) of 10.1% and a microsomal CLint [30] of over 277 µL/min/mg. For the same molecule, the Activity (CFPAC-1 [31]) was 2.1%, the IC50 at 72 h [32] was 3.32 µM and the Activity [33] was “Non-Toxic”. For the same molecule, the Activity (CFPAC-1 [34]) was 0.86%, the Activity (CFPAC-1 [35]) was 10.6% and the CLH [36] was over 83.2 mL/min/kg. For the same molecule, the CLH [37] was 13.2 mL/min/kg, the Activity (CFPAC-1 [38]) was 9.53% and the Activity (CFPAC-1 [39]) was “inactive”.
